Laboratory results: patent publication US8637079B2, “Solid preparation comprising alogliptin and pioglitazone” (Takeda Pharmaceutical Company Limited, priority 2007, dated 2014)

Test: Chemical stability on storage: amount of benzoic acid remaining as compound (IA)
Assay type: physicochemical
Protocol: Compound (IA) (50 mg) of Comparative Example 1, the mixture (99.59 mg) of Comparative Example 2, and tablets of Example 1 and Example 2 were preserved in glass bottles at 40° C., 75% RH with opened cap or at 60° C. with closed cap and the amount of benzoic acid remaining as compound (IA) was measured to evaluate the chemical stability.

residual benzoic acid (40° C., 75% RH, opened bottle, 2 week storage product): 99.2% | residual benzoic acid (60° C., closed bottle, 2 week storage product): 99.0% | residual benzoic acid (Initial): 99.8%
SMILES: Cn1c(=O)cc(N2CCC[C@@H](N)C2)n(Cc2ccccc2C#N)c1=O [Comparative Example 1, 2-[[6-[(3R)-3-amino-1-piperidinyl]-3,4-dihydro-3-methyl-2,4-dioxo-1(2H)-pyrimidinyl]methyl]-benzonitrile]
